Laboratory results reported in US7217557B1, “Three-dimensional structure of polyketide synthases” (The Salk Institute for Biological Studies, priority 1999, dated 2007).
“Also recorded” adds a separate entry of the source.

Tests used:
[1] = TLC-based radiometric assay of product formation by 2-PS, CHS and CHS mutants; format: biochemical; details: for polyketide product formed: TLC, triple mutant and 2-PS confirmed by LC/MS; for starter molecule accepted: p-coumaroyl-CoA or acetyl-CoA as starter
From the text: Comparison of the initiation/elongation cavities of 2-PS and CHS reveal four amino acid differences. In 2-PS, Leu202, Met259, Leu261, and Ile343 replace Thr197, Ile254, Gly256, and Ser338, respectively, of CHS. These four substitutions reduce cavity volume from 923 Å^3 in CHS to 274 Å^3 in 2-PS. A model of methylpyrone in the 2-PS cavity, based on the position of acetoacetyl-CoA, emphasizes the volume change compared to the CHS-naringenin complex (Accession No. 1CGK). Leu202 and Ile343 occlude the portion of the 2-PS cavity corresponding to the coumaroyl-binding site of CHS. Replacement of Gly256 in CHS by Leu261 in 2-PS severely reduces the size of the active site cavity. Substitution of Met259 in 2-PS for Ile254 in CHS produces a modest alteration in cavity volume. To examine the functional importance of these amino acid differences, the initiation/elongation cavity of CHS was altered by mutagenesis to resemble that of 2-PS. The resulting mutant proteins were screened for activity using either p-coumaroyl-CoA or acetyl-CoA as starter molecules. Activities of 2-PS, CHS, and the CHS mutants were determined by monitoring product formation using a TLC-based radiometric assay. Assay conditions were 100 mM Hepes (pH 7.0), 30 μM starter-CoA (either p-coumaroyl-CoA or acetyl-CoA), and 60 μM [^14C]-malonyl-CoA (50,000 cpm) in 100 μl at 25° C. Reactions were quenched with 5% acetic acid, extracted with ethyl acetate, and applied to TLC plates and developed. Due to the spontaneous cyclization of chalcone into the flavanone naringenin, activities of CHS are referenced to naringenin formation.
The x-ray crystal structures of 2-PS and CHS imply that the size of the active site cavity limits polyketide length and modulates folding of the polyketide chain. […] Since the T197L, G256L, and S338I mutants altered product formation, a CHS triple mutant was generated. […] LC/MS/MS analysis was performed by the Mass Spectroscopy facility of the Scripps Research Institute. Scaled-up assays (2 ml reaction volume) with the CHS T197L/G256L/S338I mutant and 2-PS were performed. Extracts were analyzed on a Hewlett-Packard HP1100 MSD single quadrupole mass spectrometer coupled to a ZorbaxSB-C18 column (5 μm, 2.1 mm×150 mm). HPLC conditions were as follows: gradient system from 0 to 100% methanol in water (each containing 0.2% acetic acid) within 10 min; flow rate 0.25 ml min^−1. LC/MS/MS data from both reactions were identical: 6-methyl-4-hydroxy-2pyrone, Rt=5.068 min; [M-H]^−125 (41); [M-H—CO2]^−[…] (100). The numbers show m/z values with relative intensities in parenthesis. The observed fragmentation matches previously published data.

CHS = details: covalently modifies Cys164; Lanz et al. 1991; cited from earlier work
[2] = Functional assay of malonyl-CoA decarboxylation by the C164S mutant; format: biochemical; details: determined crystallographically and confirmed by a functional assay
From the text: Asn336 appears to play a crucial role in the decarboxylation reaction. […] In the hexanoyl-CoA complex, the side chain amide of Asn336 provides a hydrogen bond to the carbonyl oxygen of the thioester. This interaction would stabilize the enolate anion resulting from decarboxylation of malonyl-CoA (see FIG. 6). At the same time, the lack of formal positive charge at Asn336 may preserve the partial carbanion character of this resonance-stabilized anion, and thus the nucleophilicity of the carbanion form.

[3] = 30 μM starter-CoA, 60 μM [14C]-malonyl-CoA, pH 7.0, 25° C.

Q: What does the source list for “2-PS: 2-Pyrone synthase from Gerbera hybrida, expressed in E. coli”?
A: polyketide product formed [1]: produces the triketide methylpyrone; starter molecule accepted [1]: accepts acetyl-CoA but does not use p-coumaroyl-CoA

Q: For `C/C=C/C/C=C/CCC(=O)[C@H]1O[C@H]1C(N)=O` [Cerulenin], which “inhibition of CHS” value (CHS) is on record?
A: Its value is “potent irreversible inhibitor”.

Q: With “CHS I254M: CHS mutant I254M of SEQ ID NO:1” as the molecule, how does the “specific activity compared with wild-type enzyme” value [1] read?
A: The value was “functionally comparable to wild-type enzyme with a modest reduction in specific activity”.

Q: And the polyketide product formed [1]?
A: Its polyketide product formed is “yields chalcone”.

Q: What does the source list for G256L: CHS mutant G256L of SEQ ID NO:1?
A: preference for acetyl-CoA over coumaroyl-CoA as starter molecule [1, 3]: 3 fold; polyketide product formed [1]: do not form chalcone

Q: Which “preference for p-coumaroyl-CoA versus acetyl-CoA as starter molecule” value [1, 3] does the source give for S338I: CHS mutant S338I of SEQ ID NO:1 here?
A: The value was 3 fold.

Q: What about the polyketide product formed [1] of the same molecule?
A: Its polyketide product formed is “do not form chalcone; also recorded: form a distinct product”.

Q: For “T197L/G256L/S338I: CHS triple mutant with active site sterically analogous to 2-pyrone synthase”, which polyketide product formed [1] is on record?
A: Its polyketide product formed is “produces only methylpyrone”.

Q: What about the starter molecule accepted [1] of the same molecule?
A: The starter molecule accepted was “only accepts acetyl-CoA (or malonyl-CoA)”.

Q: Which “preference for p-coumaroyl-CoA versus acetyl-CoA as starter molecule” value [1, 3] does the source give for T197L: CHS mutant T197L of SEQ ID NO:1 here?
A: Its value is 10 fold.

Q: And the polyketide product formed [1]?
A: The polyketide product formed was “do not form chalcone; also recorded: form a distinct product”.

B1: C164S: CHS mutant C164S of SEQ ID NO:1 (protein, UniProt P30074 1-389, looked up, variant C164S)
Chalcone synthase 2: MVSVSEIRKAQRAEGPATILAIGTANPANCVEQSTYPDFYFKITNSEHKTELKEKFQRMCDKSMIKRRYMYLTEEILKENPNVCEYMAPSLDARQDMVVVEVPRLGKEAAVKAIKEWGQPKSKITHLIVCTTSGVDMPGADYQLTKLLGLRPYVKRYMMYQQGSFAGGTVLRLAKDLAENNKGARVLVVCSEVTAVTFRGPSDTHLDSLVGQALFGDGAAALIVGSDPVPEIEKPIFEMVWTAQTIAPDSEGAIDGHLREAGLTFHLLKDVPGIVSKNITKALVEAFEPLGISDYNSIFWIAHPGGPAILDQVEQKLALKPEKMNATREVLSEYGNMSSACVLFILDEMRKKSTQNGLKTTGEGLEWGVLFGFGPGLTIETVVLRSVAI
Q: With B1 as the molecule, how does the “decarboxylation of malonyl-CoA / residual catalytic activity” value [2] read?
A: Its value is “retains limited catalytic activity; also recorded: produces acetyl-CoA”.
